Assay results reported in US20220340597A1, “HEXAHYDRO-1H-PYRAZINO[1,2-A]PYRAZINE COMPOUNDS FOR THE TREATMENT OF AUTOIMMUNE DISEASE” (Hoffmann-La Roche Inc., priority 2019, published 2022).

Columns and labels:
human TLR8 = target: T1, human TLR8 (Homo sapiens, UniProt Q9NR97); assay: HEK293-Blue-hTLR-8 cells assay
T1 sequence (Q9NR97 27-1041): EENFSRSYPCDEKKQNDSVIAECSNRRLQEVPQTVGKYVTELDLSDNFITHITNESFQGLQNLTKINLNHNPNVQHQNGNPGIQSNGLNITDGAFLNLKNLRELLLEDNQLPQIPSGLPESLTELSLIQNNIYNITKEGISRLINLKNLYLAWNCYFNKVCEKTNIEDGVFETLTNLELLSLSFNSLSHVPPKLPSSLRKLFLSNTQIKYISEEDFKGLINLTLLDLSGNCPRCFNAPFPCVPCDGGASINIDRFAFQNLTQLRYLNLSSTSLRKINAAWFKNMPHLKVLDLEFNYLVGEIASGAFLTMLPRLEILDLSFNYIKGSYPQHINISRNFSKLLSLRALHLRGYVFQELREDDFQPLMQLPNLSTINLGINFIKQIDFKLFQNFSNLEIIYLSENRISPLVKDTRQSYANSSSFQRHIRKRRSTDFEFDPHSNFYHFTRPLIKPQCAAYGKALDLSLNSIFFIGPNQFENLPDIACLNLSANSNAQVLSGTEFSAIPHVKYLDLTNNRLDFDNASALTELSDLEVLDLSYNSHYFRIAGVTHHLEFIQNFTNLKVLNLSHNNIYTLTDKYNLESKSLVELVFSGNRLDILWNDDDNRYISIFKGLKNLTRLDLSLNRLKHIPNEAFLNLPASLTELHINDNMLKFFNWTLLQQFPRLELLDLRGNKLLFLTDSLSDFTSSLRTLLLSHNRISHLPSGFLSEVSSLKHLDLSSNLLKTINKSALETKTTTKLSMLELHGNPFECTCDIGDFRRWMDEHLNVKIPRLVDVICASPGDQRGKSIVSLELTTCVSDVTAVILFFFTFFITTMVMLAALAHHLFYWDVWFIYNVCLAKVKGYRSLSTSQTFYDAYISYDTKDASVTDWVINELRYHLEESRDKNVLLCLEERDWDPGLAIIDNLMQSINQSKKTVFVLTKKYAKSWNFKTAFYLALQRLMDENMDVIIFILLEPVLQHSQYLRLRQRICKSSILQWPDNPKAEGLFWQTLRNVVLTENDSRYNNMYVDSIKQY
Description: The following tests were carried out in order to determine the activity of the compounds of formula (I) and (Ia) in HEK293-Blue-hTLR-7/8/9 cells assay.
HEK293-Blue-hTLR-8 Cells Assay:
A stable HEK293-Blue-hTLR-8 cell line was purchased from InvivoGen (Cat. #: hkb-htlr8, San Diego, Calif., USA). These cells were originally designed for studying the stimulation of human TLR8 by monitoring the activation of NF-κB. A SEAP (secreted embryonic alkaline phosphatase) reporter gene was placed under the control of the IFN-β minimal promoter fused to five NF-κB and AP-1-binding sites. The SEAP was induced by activating NF-κB and AP-1 via stimulating HEK-Blue hTLR8 cells with TLR8 ligands. Therefore, the reporter expression was declined by TLR8 antagonist under the stimulation of a ligand, such as R848, for incubation of 20 hrs. The cell culture supernatant SEAP reporter activity was determined using QUANTI-Blue™ kit (Cat. #: rep-qb1, Invivogen, San Diego, Calif., USA) at a wavelength of 640 nm, a detection medium that turns purple or blue in the presence of alkaline phosphatase.

human TLR9 = target: T2, human TLR9 (Homo sapiens, UniProt Q9NR96); assay: HEK293-Blue-hTLR-9 cells assay; format: cell-based; settings: HEK293-Blue-hTLR9 cells, ODN2006 stimulation, 20 hrs, SEAP reporter; read-out: HEK/hTLR9 IC50
T2 construct: host or cells: HEK293 (HEK-Blue hTLR9)
T2 sequence (Q9NR96 26-1032): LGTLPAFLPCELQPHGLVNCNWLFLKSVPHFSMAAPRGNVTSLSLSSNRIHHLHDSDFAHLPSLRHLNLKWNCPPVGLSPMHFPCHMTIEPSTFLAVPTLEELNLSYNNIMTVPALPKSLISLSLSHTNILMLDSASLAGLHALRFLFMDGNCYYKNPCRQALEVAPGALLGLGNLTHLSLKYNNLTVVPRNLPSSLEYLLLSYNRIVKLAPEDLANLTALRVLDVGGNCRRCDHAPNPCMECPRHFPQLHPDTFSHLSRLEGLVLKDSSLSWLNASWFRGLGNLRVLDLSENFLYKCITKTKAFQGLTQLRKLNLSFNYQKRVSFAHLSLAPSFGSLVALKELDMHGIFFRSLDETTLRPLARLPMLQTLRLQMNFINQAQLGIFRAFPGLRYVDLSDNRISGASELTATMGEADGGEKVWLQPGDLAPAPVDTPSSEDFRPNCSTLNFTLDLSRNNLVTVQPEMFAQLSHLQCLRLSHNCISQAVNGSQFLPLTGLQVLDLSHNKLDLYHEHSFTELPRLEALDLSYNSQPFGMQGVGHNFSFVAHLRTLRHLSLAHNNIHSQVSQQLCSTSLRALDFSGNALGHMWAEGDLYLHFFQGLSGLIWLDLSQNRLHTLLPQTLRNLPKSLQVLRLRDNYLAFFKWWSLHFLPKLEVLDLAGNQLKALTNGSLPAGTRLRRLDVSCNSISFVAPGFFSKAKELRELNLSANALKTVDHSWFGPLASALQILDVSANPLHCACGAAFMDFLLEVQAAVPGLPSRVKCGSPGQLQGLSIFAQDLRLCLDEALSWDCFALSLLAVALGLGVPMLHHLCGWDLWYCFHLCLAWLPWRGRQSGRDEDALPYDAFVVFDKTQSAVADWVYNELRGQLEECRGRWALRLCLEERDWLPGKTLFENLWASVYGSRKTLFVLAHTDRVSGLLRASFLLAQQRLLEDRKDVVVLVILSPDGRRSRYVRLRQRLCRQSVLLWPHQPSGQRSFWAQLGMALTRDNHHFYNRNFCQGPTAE

## [2H]c1ccc2c(N3C[C@@H]4CN(Cc5cnc(N6C[C@@H]7C[C@H]6CN7)cc5C)CCN4[C@H](C)C3)ccc(C#N)c2n1 [Example 94, 5-[(4R,9aS)-8-[[6-[(1S,4S)-2,5-diazabicyclo[2.2.1]heptan-2-yl]-4-methyl-3-pyridyl]methyl]-4-methyl-3,4,6,7,9,9a-hexahydro-1H-pyrazino[1,2-a]pyrazin-2-yl]-2-deuterio-quinoline-8-carbonitrile]
Human TLR8
  IC50: 8 nM
Human TLR9
  IC50: 99 nM

## [2H]c1ccc2c(N3C[C@@H]4CN(c5ncc(N6C[C@@H]7C[C@H]6CN7)cc5C)CCN4[C@H](C)C3)ccc(C#N)c2n1 [Example 95, 5-[(4R,9aR)-8-[5-[(1S,4S)-2,5-diazabicyclo[2.2.1]heptan-2-yl]-3-methyl-2-pyridyl]-4-methyl-3,4,6,7,9,9a-hexahydro-1H-pyrazino[1,2-a]pyrazin-2-yl]-2-deuterio-quinoline-8-carbonitrile]
Human TLR8
  IC50: 6 nM
Human TLR9
  IC50: 142 nM

## [2H]c1ccc2c(N3C[C@@H]4CN(c5ncc(N6C[C@@H](N)[C@@H](OC)C6)cc5C)CCN4[C@H](C)C3)ccc(C#N)c2n1 [Example 96, 5-[(4R,9aR)-8-[5-[(3R,4S)-3-amino-4-methoxy-pyrrolidin-1-yl]-3-methyl-2-pyridyl]-4-methyl-3,4,6,7,9,9a-hexahydro-1H-pyrazino[1,2-a]pyrazin-2-yl]-2-deuterio-quinoline-8-carbonitrile]
Human TLR8
  IC50: 5 nM
Human TLR9
  IC50: 189 nM

## [2H]c1ccc2c(N3C[C@@H]4CN(c5ncc(N6CC[C@@](C)(N)C6)cc5C)CCN4[C@H](C)C3)ccc(C#N)c2n1 [Example 97, 5-[(4R,9aR)-8-[5-[(3R)-3-amino-3-methyl-pyrrolidin-1-yl]-3-methyl-2-pyridyl]-4-methyl-3,4,6,7,9,9a-hexahydro-1H-pyrazino[1,2-a]pyrazin-2-yl]-2-deuterio-quinoline-8-carbonitrile]
Human TLR8
  IC50: 4 nM
Human TLR9
  IC50: 140 nM

## [2H]c1ccc2c(N3C[C@@H]4CN(Cc5ccc(N6C[C@H]7NCCO[C@@H]7C6)nc5C)CCN4[C@H](C)C3)ccc(C#N)c2n1 [Example 98, 5-[(4R,9aS)-8-[[6-[(4aR,7aR)-3,4,4a,5,7,7a-hexahydro-2H-pyrrolo[3,4-b][1,4]oxazin-6-yl]-2-methyl-3-pyridyl]methyl]-4-methyl-3,4,6,7,9,9a-hexahydro-1H-pyrazino[1,2-a]pyrazin-2-yl]-2-deuterio-quinoline-8-carbonitrile]
Human TLR8
  IC50: 10 nM
Human TLR9
  IC50: 58 nM

## [2H]c1ccc2c(N3C[C@@H]4CN(c5ncc(N6C[C@@H](N)[C@H](OC)C6)cc5C)CCN4[C@H](C)C3)ccc(C#N)c2n1 [Example 99, 5-[(4R,9aR)-8-[5-[(3R,4R)-3-amino-4-methoxy-pyrrolidin-1-yl]-3-methyl-2-pyridyl]-4-methyl-3,4,6,7,9,9a-hexahydro-1H-pyrazino[1,2-a]pyrazin-2-yl]-2-deuterio-quinoline-8-carbonitrile]
Human TLR8
  IC50: 2 nM
Human TLR9
  IC50: 155 nM

## [2H]c1ccc2c(N3C[C@@H]4CN(c5ncc(N6C[C@H]7NCCO[C@@H]7C6)cc5C)CCN4[C@H](C)C3)ccc(C#N)c2n1 [Example 100, 5-[(4R,9aR)-8-[5-[(4aR,7aR)-3,4,4a,5,7,7a-hexahydro-2H-pyrrolo[3,4-b][1,4]oxazin-6-yl]-3-methyl-2-pyridyl]-4-methyl-3,4,6,7,9,9a-hexahydro-1H-pyrazino[1,2-a]pyrazin-2-yl]-2-deuterio-quinoline-8-carbonitrile]
Human TLR8
  IC50: 3 nM
Human TLR9
  IC50: 173 nM
